Assay results published in patent publication US20090111781A1, “Use of Cymipristone Type Compounds in Aids Treatment” (SHANGHAI THREE-ALLIANCE BIOTECHNOLOGIES CO., LTD., priority 2005, published 2009).
In brackets after ≈: the same amount, converted by molar mass.

Assays:
[1] = test system: HIV-1 AZT-sensitive strain 018a P24 antigen; assay: Inhibition of HIV-1 018a P24 antigen in PBMC cell culture; format: cell-based; conditions: for EC50: Human immunodeficiency virus 1, PBMC, 2 h, administration after adsorbing 2 hours
Method: (§1) Collect cells with curette, infect cells with 10^−2 AZT sensitive (018a) or AZT resistant (018c) virus strain liquid, and adsorb for 2 hours, Wash off unabsorbed virus with 1640 culture medium without serum, prepare cells infected by virus to 1×10^6/ml with culture solution, and inoculate on 96-pore culture plate, 100 μl/pore. […] Set cell control group and virus infected cell control group. Incubate under 37° C. and 5% CO2. On the fourth day (96 hours), pipette out the supernatant liquid and store under −20° C. for determination of HIV-1 P24 antigen titer and calculation of drug inhibitory action. Add MTT staining to cells for determination of cytotoxicity. Determination of cytotoxicity by MTT staining: Add 10 μl of 5 mg/ml MTT stain into each pore, continue to incubate under 37° C., 5% CO2 and saturated humidity for 4 hours. […] Determine the HIV-1 P24 antigen titer according to the operation procedure provided by the HIV-1 P24 antigen reagent kit. Compare the drug-added group with virus control group. […] Calculation method of 50% toxic concentration (CC50), 50% effective concentration (EC50) and selection index (SI):
(3) Calculation Method of Selection Index (SI) on HIV-1 P24 Antigen in Cell Culture SI=CC50/EC50

MT-4 cells = assay: Cytotoxicity in MT-4 cell culture by MTT staining method; format: cell-based, human
Method: (§2) Set virus TCID50 determination group and cell control group. Each concentration is duplicated in two pore. Incubate under 37° C., 5% CO2 and saturated humidity in an incubator. Add MTT into each pore of cell culture plate pipetted supernatant liquid to stain, continue to incubate for 4 hours, add decolorizing liquid, determine OD value at 570 nm wavelength by enzyme-linked apparatus, and [NT]50 and TC0 as above. […] [formula]

[2] = as above; format: cell-based, human; conditions: human, MT-4 cells infected with HIV-1 IIIB; MT-4 cell culture, MTT staining; read-out: Cytotoxicity TC50, MTT
Method: as §2

[3] = MTT toxicity on PBMC infected by HIV-1 AZT-resistant strain 018c; conditions: human
Method: as §1, with “(SI): […]” for “(SI):”

estrogen receptor ERα = molecular target: T1, estrogen receptor ERα (Homo sapiens, UniProt P03372); assay: Binding activity on human nuclear receptor ERα; conditions: mean ± SD, n = 4
T1 sequence (P03372 1-595): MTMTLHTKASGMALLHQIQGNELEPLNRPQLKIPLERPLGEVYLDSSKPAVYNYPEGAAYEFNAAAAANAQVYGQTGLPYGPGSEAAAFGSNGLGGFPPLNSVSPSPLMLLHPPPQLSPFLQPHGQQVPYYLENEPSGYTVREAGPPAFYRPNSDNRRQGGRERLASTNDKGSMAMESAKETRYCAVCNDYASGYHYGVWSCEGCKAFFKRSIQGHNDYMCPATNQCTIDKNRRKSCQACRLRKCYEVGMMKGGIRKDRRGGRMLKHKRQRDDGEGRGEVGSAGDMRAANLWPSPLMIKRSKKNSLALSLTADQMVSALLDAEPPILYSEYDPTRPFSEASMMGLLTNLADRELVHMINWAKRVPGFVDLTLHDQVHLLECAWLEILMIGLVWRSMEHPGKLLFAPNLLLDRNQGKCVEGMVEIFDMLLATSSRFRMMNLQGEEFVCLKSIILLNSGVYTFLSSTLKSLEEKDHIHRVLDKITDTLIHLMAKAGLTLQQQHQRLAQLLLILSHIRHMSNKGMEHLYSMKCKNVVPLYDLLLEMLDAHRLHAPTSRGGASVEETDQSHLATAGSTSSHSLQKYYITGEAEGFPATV
Method: Buffer solution is composed of 25 mM NaPO4, 20 mM NaMoO4, 10 mM KF and 10% glycerol (pH=7.3) and stored under 4° C. Stock solution is prepared with CHAPS and DTT and stored under −20° C. […] Add 2.5 μl/hole into 96-pore plate. Take out appropriate amount of buffer solution reserve into solution to make the final concentration of CHAPS and DDT to become 0.25 mM and 2 mM respectively. Add protease inhibitors (aprotinin and leupeptin) to make its final concentration to become 1 μg/μl, and place in an ice bath. After adding human nuclear receptor GR (1:8), PR (1:100), ER (1:2000), AR (1:200) and MR (1:40) into the reaction system respectively, adequately mix suitable quantity of [^3H]-dexamethasone, [^3H]-progesterone, [^3H]-estradiol and [^3H]-DHT (from Amersham), rapidly add into 96-pore plate (100 μl/pore) and incubate overnight under 4° C. On the next day, add 25 μl of hydroxyapatite suspension into each pore and mix with shaking. After incubating for 10 min, separate by centrifuge for 3 min at 2500 rpm. The precipitate is washed with 100 μl of buffer solution and separated by centrifuge twice. Add 150 μl of scintillation solution (from Perkin Elmer) into each pore, mix with shaking and count by MicroBeta counter.

## CC#C[C@]1(O)CC[C@H]2[C@@H]3CCC4=CC(=O)CCC4=C3[C@@H](c3ccc(N(C)C4CCCCC4)cc3)C[C@@]21C [Cymipristone, 11β-[4-(N-methyl-N-cyclohexylamino)phenyl]-17α-(1-propynyl)-17β-hydroxyl-4,9-estradiene-3-one]
[1]; Average, PBMC
  EC50: 12.4 µg/mL (≈ 24.8 µM)
[1]; Experiment 1, PBMC
  EC50: 12.5 µg/mL (≈ 25.1 µM)
[1]; Experiment 2, PBMC
  EC50: 12.2 µg/mL (≈ 24.6 µM)
[1]; SI=CC50/EC50, Average
  SI: 10.53
[1]; SI=CC50/EC50, Experiment 1
  SI: 8.30
[1]; SI=CC50/EC50, Experiment 2
  SI: 12.76
MT-4 cells; MT-4 cell culture, MTT staining
  Cytotoxicity TC50, MTT: 30.26 µg/mL
MT-4 cells; conclusion
  Toxicity on cultured human T-lymphocyte MT-4 (in words): no significant toxicity
[2]
  CC50 at 96 h: 60.9 µM
[3]; 50% toxic concentration CC50, Experiment 1
  CC50 at 96 h: 103 µg/mL (≈ 207 µM)
[3]; 50% toxic concentration CC50, Experiment 2
  CC50 at 96 h: 104 µg/mL (≈ 210 µM)
Estrogen receptor ERα
  IC50: 0.516 ± 0.0628 µM
